Assay results published in PubChem BioAssay (NCI).
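Test compounds were applied to cells in 96-well plates for 48 hours at 5 doses. At the GI50, growth is halved. The concentration for full growth arrest is given as TGI.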

Columns and labels:
Test in all cases: inhibition of tumour cell growth, NCI panel, 48 h
[1] = system: K-562 leukemia
[2] = system: DU-145 prostate
[3] = system: OVCAR-5 ovarian
[4] = system: KM12 colon
[5] = system: U251 CNS
[6] = system: HL-60(TB) leukemia
[7] = system: LOX IMVI melanoma
[8] = system: HCC-2998 colon
[9] = system: SF-539 CNS
[10] = system: EKVX NSCLC

Row | Structure (SMILES) | GI50 [1] | TGI [1] | GI50 [2] | TGI [2] | GI50 [3] | TGI [3] | GI50 [4] | TGI [4] | GI50 [5] | TGI [5] | GI50 [6] | TGI [6] | GI50 [7] | TGI [7] | GI50 [8] | TGI [8] | GI50 [9] | TGI [9] | GI50 [10] | TGI [10]
1 | COc1ccc(/C=C/C(=O)/C=C(/C=C/c2ccc(OC)c(OC)c2)OB(F)F)cc1OC | 0.463 µM | > 100 µM | 1.12 µM | 2.84 µM | 2.26 µM | 5.86 µM | 1.78 µM | 3.95 µM | 0.807 µM | 2.31 µM | 0.495 µM | 3.64 µM | 0.808 µM | 2.19 µM | 2.02 µM | 4.17 µM | 1.18 µM | 3.63 µM | 1.04 µM | > 100 µM
2 | COc1cccc(-c2nc(-c3ccc(NS(=O)(=O)c4ccccc4)cc3)[nH]c2-c2ccnc(Br)c2)c1 | 2.6 µM | > 100 µM | 3.69 µM | > 100 µM | 4.17 µM | > 100 µM | 2.65 µM | 8.74 µM | 2.73 µM | > 100 µM | 2.86 µM | > 100 µM | 1.56 µM | 3.44 µM | 2.12 µM | 4.71 µM | 2.53 µM | 8.03 µM | 2.25 µM | 9.06 µM
3 | C[C@@H](Oc1cc(-c2cnn(C3CCNCC3)c2)cnc1N)c1c(Cl)ccc(F)c1Cl | 0.267 µM | 2.3 µM | 2.74 µM | > 10 µM | 1.14 µM | > 10 µM | 0.053 µM | > 10 µM | 1.98 µM | 8.74 µM | 0.398 µM | 1.9 µM | 1.17 µM | 2.64 µM | 2.28 µM | > 10 µM | 1.8 µM | 3.5 µM | 8.07 µM | > 10 µM
4 | CS(=O)(=O)c1ccc(Oc2nccc(-c3c(-c4ccc(F)cc4)ncn3C3CCNCC3)n2)cc1 | > 9.38 µM | > 14.9 µM | > 25 µM | > 25 µM | > 25 µM | > 25 µM | > 25 µM | > 25 µM | > 25 µM | > 25 µM | > 20.6 µM | > 25 µM | > 25 µM | > 25 µM | > 25 µM | > 25 µM | > 25 µM | > 25 µM | > 25 µM | > 25 µM
5 | C=C(CN1CCc2ccccc2C1)c1ccc(/C=C/C(=O)Nc2ccccc2N)cc1 | 5.49 µM | > 100 µM | 5.98 µM | > 100 µM | 12.8 µM | > 100 µM | 0.965 µM | > 100 µM | 3.42 µM | 27.8 µM | 4.28 µM | 76.8 µM | 3.09 µM | 16.5 µM | 2.04 µM | 34.5 µM | 13 µM | > 100 µM | 10.4 µM | > 100 µM
6 | O=C(Oc1cccc(Nc2ncnc3ccccc23)c1)c1ccccc1Cl | 43.1 µM | > 100 µM | 22.3 µM | > 100 µM | 32.3 µM | > 100 µM | 14.4 µM | 31.4 µM | 25.4 µM | 63.5 µM | 79.4 µM | > 100 µM | 15.8 µM | 36.2 µM | 20.4 µM | 39.3 µM | 30.5 µM | 88.9 µM | 7.4 µM | 91.5 µM
7 | Cn1cc(-c2nc(-c3c[nH]c4ncccc34)cs2)c2cc(Cl)ccc21 | 2.76 µM | 15.2 µM | 5.67 µM | > 100 µM | 1.61 µM | > 100 µM | 2.26 µM | 7.47 µM | 3.85 µM | 30.8 µM | 5.93 µM | > 100 µM | 3.61 µM | > 100 µM | 3.47 µM | 28.3 µM | 12.1 µM | > 100 µM | 0.678 µM | > 100 µM
8 | O=C1CC2(CCCc3sccc32)C(=O)N1 (stereo not given) |  | > 100 µM |  | > 100 µM |  | > 100 µM |  | > 100 µM |  | > 100 µM |  | > 100 µM |  | > 100 µM |  | > 100 µM |  | > 100 µM |  | > 100 µM
9 | C=C1C(=O)OC2C1C(OC(=O)/C(C)=C/C)CC(O)(CCl)C1C(OC(C)=O)C=C(C)C21O (stereo not given) |  | > 37.4 µM |  | 29 µM |  | 31.9 µM |  | 39.5 µM |  | 41.2 µM |  | 9.39 µM |  | 20.7 µM |  | 31.9 µM |  | 41 µM |  | 24.7 µM
10 | O=C(CSc1nc2ccc([N+](=O)[O-])cc2[nH]1)Nc1cccc(C(F)(F)F)c1 | 2.16 µM | > 39.8 µM | 3.54 µM | 15 µM | 2.62 µM | 11.1 µM | 2.2 µM | 8.08 µM | 2.28 µM | 12.2 µM | 2.57 µM | 8.33 µM | 2.95 µM | 13 µM | 2.8 µM | 12.2 µM | 2.9 µM | 11.7 µM | 1.84 µM | 9.94 µM
11 | O=C(Nc1cccc(NS(=O)(=O)c2ccc(F)cc2)c1)c1ccc(-c2ccccc2)cc1 | 2.91 µM | 24.7 µM | 3.96 µM | > 100 µM | 7.84 µM | 75.8 µM | 3.46 µM | 15.6 µM | 3.92 µM | 19.2 µM | 3.37 µM | 12.9 µM | 2.54 µM | 6.99 µM | 3.48 µM | 24.4 µM | 3.42 µM | 12.8 µM | 2.98 µM | 65.3 µM
12 | COc1cccc2c(Nc3ccc(C(=O)NCCNCCO)cc3)cc(-c3ccccc3)nc12 | 22.3 µM | 64.9 µM | 58.7 µM | > 100 µM | 76.7 µM | > 100 µM | 33.2 µM | > 100 µM | 5.89 µM | 24.9 µM | 26.6 µM | 99.2 µM | 3.17 µM | 23.2 µM | 49.6 µM | > 100 µM | 40.9 µM | > 100 µM | > 100 µM | > 100 µM
13 | COc1c(O)cc2oc3cc(O)c(CC=C(C)C)c(O)c3c(=O)c2c1C/C=C(\C)CCC=C(C)C | 7.29 µM | 16.6 µM | 5.98 µM | 10.5 µM | 5.19 µM | 10.6 µM | 5.47 µM | 9.91 µM | 5.89 µM | 10.6 µM | 7.69 µM | 17.7 µM | 5.49 µM | 10.5 µM | 7.06 µM | 13.6 µM | 6.11 µM | 12 µM | 4.89 µM | 9.75 µM
14 | O=c1oc2ccccc2cc1-c1ccc([N+](=O)[O-])cc1 |  | > 100 µM |  | > 100 µM |  | > 100 µM |  | > 100 µM |  | > 51.9 µM |  | > 100 µM |  | > 100 µM |  | > 100 µM |  | > 100 µM |  | > 100 µM
15 | COC(=O)c1ccc(-c2nc3cc(F)c(F)cc3nc2C#N)cc1 | 1.9 µM | 16.3 µM | 8.7 µM | 17.3 µM | 12.1 µM | 32.6 µM | 31.4 µM | 50 µM | 10.1 µM | 21.4 µM | 3.23 µM | 9.51 µM | 0.948 µM | 1.79 µM | 8.41 µM | 16.1 µM | 10.7 µM | 18.7 µM | 9.89 µM | 19.5 µM
